Tests used:
[1] = biological target: T1, human recombinant adrenergic α2B receptor (Homo sapiens, UniProt P18089); experiment: Adrenergic α2B radioligand binding ([3H]Rauwolscine); conditions: compound at 1 μM; CHO-K1 cells; read-out: Adrenergic (1 μM) α2B, percent inhibition of specific binding
T1 construct: expressed in transfected cells; host or cells: CHO-K1 cells
T1 sequence (P18089 1-450): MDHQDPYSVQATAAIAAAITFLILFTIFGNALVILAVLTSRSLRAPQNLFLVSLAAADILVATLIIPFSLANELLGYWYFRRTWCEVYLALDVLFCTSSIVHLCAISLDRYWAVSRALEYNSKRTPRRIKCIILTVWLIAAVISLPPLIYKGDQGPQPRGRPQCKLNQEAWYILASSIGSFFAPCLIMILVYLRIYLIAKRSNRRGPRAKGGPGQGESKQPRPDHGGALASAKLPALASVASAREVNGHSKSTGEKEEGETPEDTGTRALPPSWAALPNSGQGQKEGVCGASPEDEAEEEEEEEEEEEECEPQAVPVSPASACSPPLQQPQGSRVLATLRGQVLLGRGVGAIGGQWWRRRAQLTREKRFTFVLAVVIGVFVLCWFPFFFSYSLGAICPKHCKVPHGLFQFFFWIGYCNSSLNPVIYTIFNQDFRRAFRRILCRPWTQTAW
Experimental: To evaluate in radioligand binding assays the activity of compounds of the invention, human recombinant adrenergic α2B receptor expressed in Chinese hamster ovary (CHO-K1) cells (Uhlen S et al. Eur. J. Pharmacol. 343(1):93, 1998) in a modified Tris-HCl buffer (50 mM Tris-HCl, pH 7.4, 12.5 mM MgCl2, 1 mM EDTA, 0.2% BSA) was used. Compounds of the invention were incubated with 2.5 nM [3H]Rauwolscine for 60 minutes at 25° C. Non-specific binding was estimated in the presence of 10 μM Prozosin. Receptor proteins were filtered and washed, the filters were then counted to determine [^3H]Rauwolscine specifically bound. Compounds were screened at 1 μM or lower, using 1% DMSO as vehicle. Biochemical assay results are presented as the percent inhibition of specific binding in Table 6.

[2] = biological target: T2, human recombinant adrenergic α2A receptor (Homo sapiens, UniProt P08913); experiment: Adrenergic α2A radioligand binding ([3H]MK-912); conditions: compound at 1 μM; insect Sf9 cells; read-out: Adrenergic (1 μM) α2A, percent inhibition of specific binding
T2 construct: expressed in transfected cells; host or cells: insect Sf9 cells
T2 sequence (P08913 1-465): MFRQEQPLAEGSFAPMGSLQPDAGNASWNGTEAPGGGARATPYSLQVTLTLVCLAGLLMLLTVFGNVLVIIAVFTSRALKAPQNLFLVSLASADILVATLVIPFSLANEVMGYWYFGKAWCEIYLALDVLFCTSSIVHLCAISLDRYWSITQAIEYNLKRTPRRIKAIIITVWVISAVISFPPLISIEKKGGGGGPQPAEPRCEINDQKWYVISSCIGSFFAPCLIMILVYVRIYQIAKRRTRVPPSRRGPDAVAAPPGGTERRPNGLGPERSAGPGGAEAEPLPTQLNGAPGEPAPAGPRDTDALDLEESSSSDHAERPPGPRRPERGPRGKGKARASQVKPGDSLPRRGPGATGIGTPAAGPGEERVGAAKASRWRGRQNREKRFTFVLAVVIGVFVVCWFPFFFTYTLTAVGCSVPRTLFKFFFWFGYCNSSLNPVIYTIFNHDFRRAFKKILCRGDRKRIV
Experimental: To evaluate in radioligand binding assays the activity of compounds of the invention, human recombinant adrenergic α2A receptor expressed in insect Sf9 cells (Uhlen S et al. J Pharmacol Exp Ther. 271:1558, 1994) in a modified Tris-HCl buffer (50 mM Tris-HCl, pH 7.4, 12.5 mM MgCl2, 2 mM EDTA) was used. Compounds of invention were incubated with 1 nM [^3H]MK-912 for 60 minutes at 25° C. MK912 is (2S-trans)-1,3,4,5′,6,6′,7,12b-octahydro-1′,3′-dimethyl-spiro[2H-benzofuro[2,3-a]quinolizine-2,4′(1′H)-pyrimidin]-2′(3′H)-one hydrochloride Non-specific binding was estimated in the presence of 10 μM WB-4101 (2-(2,6-Dimethoxyphenoxyethyl)aminomethyl-1,4-benzodioxane hydrochloride). Receptor proteins were filtered and washed, the filters were then counted to determine [^3H]MK-912 specifically bound. Compounds were screened at 1 μM or lower, using 1% DMSO as vehicle. Biochemical assay results are presented as the percent inhibition of specific binding in Table 6.

[3] = biological target: T3, human recombinant dopamine D2L receptor (Homo sapiens, UniProt P14416); experiment: Dopamine D2L radioligand binding ([3H]Spiperone); conditions: compound at 1 μM; CHO cells; read-out: Dopamine (1 μM) D2L, percent inhibition of specific binding
T3 construct: expressed in transfected cells; host or cells: CHO cells
Experimental: To evaluate in radioligand binding assays the activity of compounds of the invention, human recombinant dopamine D2L receptor expressed in Chinese hamster ovary (CHO) cells (Grandy, D. K. et al. Proc. Natl. Acad. Sci. USA. 86:9762, 1989; Hayes, G. et al., Mol. Endocrinol. 6:920, 1992) in a modified Tris-HCl buffer (50 mM Tris-HCl, pH 7.4, 1.4 mM Ascorbic Acid, 0.001% BSA, 150 mM NaCl) was used. Compounds of the invention were incubated with 0.16 nM [^3H]Spiperone for 120 minutes at 25° C. Non-specific binding was estimated in the presence of 10 μM Haloperidol. Receptor proteins were filtered and washed, the filters were then counted to determine [^3H]Spiperone specifically bound. Compounds were screened at 1 μM or lower, using 1% DMSO as vehicle. Biochemical assay results are presented as the percent inhibition of specific binding in Table 6.

[4] = biological target: T4, human recombinant serotonin (5-Hydroxytryptamine) 5-HT6 receptor (Homo sapiens, UniProt P50406); experiment: Serotonin 5-HT6 radioligand binding ([3H]LSD); conditions: compound at 1 μM; HeLa cells; read-out: Serotonin (1 μM) 5-HT6, percent inhibition of specific binding
T4 construct: expressed in transfected cells; host or cells: human HeLa cells
Experimental: To evaluate in radioligand binding assays the activity of compounds of the invention, human recombinant serotonin (5-Hydroxytryptamine) 5-HT6 receptor expressed in human HeLa cells (Monsma, F. J. Jr. et al., Mol. Pharmacol. 43:320, 1993) in a modified Tris-HCl buffer (50 mM Tris-HCl, pH 7.4, 150 mM NaCl, 2 mM Ascorbic Acid, 0.001% BSA) was used. Compounds of the invention were incubated with 1.5 nM [3H]Lysergic acid diethylamide (LSD) for 120 minutes at 37° C. Non-specific binding was estimated in the presence of 5 μM Serotonin (5-HT). Receptor proteins were filtered and washed, the filters were then counted to determine [3H]LSD specifically bound. Compounds were screened at 1 μM or lower, using 1% DMSO as vehicle. Biochemical assay results are presented as the percent inhibition of specific binding in Table 7.

T3 sequence (P14416 whole entry): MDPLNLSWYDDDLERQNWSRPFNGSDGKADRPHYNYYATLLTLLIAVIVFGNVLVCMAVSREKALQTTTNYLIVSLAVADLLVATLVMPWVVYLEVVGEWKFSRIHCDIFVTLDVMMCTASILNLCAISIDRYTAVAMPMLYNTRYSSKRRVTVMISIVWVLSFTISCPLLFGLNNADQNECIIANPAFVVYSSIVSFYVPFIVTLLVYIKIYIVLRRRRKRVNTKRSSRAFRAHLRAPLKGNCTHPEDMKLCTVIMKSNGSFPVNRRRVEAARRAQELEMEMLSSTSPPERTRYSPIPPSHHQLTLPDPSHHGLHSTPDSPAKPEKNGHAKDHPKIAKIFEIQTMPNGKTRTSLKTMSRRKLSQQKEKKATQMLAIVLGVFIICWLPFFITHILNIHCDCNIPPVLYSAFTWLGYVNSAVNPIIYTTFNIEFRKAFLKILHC
T4 sequence (P50406 whole entry): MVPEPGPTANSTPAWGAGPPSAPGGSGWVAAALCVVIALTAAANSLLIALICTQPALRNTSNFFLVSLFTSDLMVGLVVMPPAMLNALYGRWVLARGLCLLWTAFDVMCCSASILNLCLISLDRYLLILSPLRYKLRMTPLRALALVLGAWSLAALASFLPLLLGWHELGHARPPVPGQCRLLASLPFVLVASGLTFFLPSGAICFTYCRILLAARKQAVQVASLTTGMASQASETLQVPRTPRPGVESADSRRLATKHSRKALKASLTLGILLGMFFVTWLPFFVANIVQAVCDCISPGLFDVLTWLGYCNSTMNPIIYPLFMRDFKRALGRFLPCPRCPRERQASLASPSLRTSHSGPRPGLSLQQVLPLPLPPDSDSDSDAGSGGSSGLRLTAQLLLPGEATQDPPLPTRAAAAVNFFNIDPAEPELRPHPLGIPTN

| Structure (SMILES) | inhibition at 1 µM [1] | inhibition at 1 µM [2] | inhibition at 1 µM [3] | inhibition at 1 µM [4] |
| --- | --- | --- | --- | --- |
| Cc1ccc2c(c1)c1c(n2CCC(=O)NCc2ccccc2)CCN(C)C1 [Compound 59, N-benzyl-3-(1,2,3,4-tetrahydro-2,8-dimethylpyrido[4,3-b]indol-5-yl)propanamide] | 96% | 45% | 4% | 22% |
| CN1CCc2c(c3cc(Cl)ccc3n2CC(=O)OC(C)(C)C)C1 [Compound 12, tert-butyl 2-(8-chloro-1,2,3,4-tetrahydro-2-methylpyrido[4,3-b]indol-5-yl)acetate] | 45% | 12% | 23% | 67% |
| CN1CCc2c(c3cc(Cl)ccc3n2CCC(=O)OC2CCCC2)C1 [Compound 21, cyclopentyl 3-(8-chloro-1,2,3,4-tetrahydro-2-methylpyrido[4,3-b]indol-5-yl)propanoate] | 103% | 95% | 35% | 100% |
| Cc1ccc2c(c1)c1c(n2CC(=O)Nc2ccc(F)cc2)CCN(C)C1 [Compound 51, N-(4-fluorophenyl)-2-(1,2,3,4-tetrahydro-2,8-dimethylpyrido[4,3-b]indol-5-yl)acetamide] | 82% | 22% | 19% | 30% |
| CCOC(=O)Cn1c2c(c3cc(C)ccc31)CN(C)CC2 [CD57, ethyl 2-(1,2,3,4-tetrahydro-2,8-dimethylpyrido[4,3-b]indol-5-yl)acetate] | 65% | 45% | 12% | 67% |
| Cc1ccc2c(c1)c1c(n2C2CCCCC2O)CCN(C)C1 (centres unmarked) [Compound 73, 2-(1,2,3,4-tetrahydro-2,8-dimethylpyrido[4,3-b]indol-5-yl)cyclohexanol] | -2% | 11% | -3% | 7% |
| Cc1ccc2c(c1)c1c(n2CC(=O)NC(C)C)CCN(C)C1 [Compound 23, 2-(1,2,3,4-tetrahydro-2,8-dimethylpyrido[4,3-b]indol-5-yl)-N-isopropylacetamide] | 18% | 12% | 5% | 3% |
| CN1CCc2c(c3cc(Cl)ccc3n2CCCO)C1 [CD87, 3-(8-chloro-2-methyl-3,4-dihydro-1H-pyrido[4,3-b]indol-5(2H)-yl)propan-1-ol] | 103% | 79% | 10% | 35% |
| Cc1ccc2c(c1)c1c(n2CC(=O)NC(C)(C)C)CCN(C)C1 [Compound 24, N-tert-butyl-2-(1,2,3,4-tetrahydro-2,8-dimethylpyrido[4,3-b]indol-5-yl)acetamide] | 13% | 10% | 3% | 6% |
| CN1CCc2c(c3cc(Cl)ccc3n2CCC(N)=O)C1 [Compound 67, 3-(8-chloro-1,2,3,4-tetrahydro-2-methylpyrido[4,3-b]indol-5-yl)propanamide] | 72% | 79% | -1% | 24% |
| Cc1ccc2c(c1)c1c(n2CCNC(=O)c2ccc(F)cc2Cl)CCN(C)C1 [Compound 63, 2-chloro-4-fluoro-N-(2-(1,2,3,4-tetrahydro-2,8-dimethylpyrido[4,3-b]indol-5-yl)ethyl)benzamide] | 98% | 65% | 7% | 31% |
| Cc1ccc2c(c1)c1c(n2CCBr)CCN(C)C1 [CD91, 5-(2-bromoethyl)-2,8-dimethyl-2,3,4,5-tetrahydro-1H-pyrido[4,3-b]indole] | 102% | 86% | 15% | 88% |
| Cc1ccc2c(c1)c1c(n2CCC(=O)O)CCN(C)C1 [CD47, 3-(1,2,3,4-tetrahydro-2,8-dimethylpyrido[4,3-b]indol-5-yl)propanoic acid] | 24% | 17% | 4% | 11% |
| CN1CCc2c(c3cc(Cl)ccc3n2CCC(=O)N(C)C)C1 [Compound 49, 3-(8-chloro-1,2,3,4-tetrahydro-2-methylpyrido[4,3-b]indol-5-yl)-N,N-dimethylpropanamide] | 76% | 83% | 9% | 24% |
| CN1CCc2c(c3cc(Cl)ccc3n2CC(=O)OCc2ccccc2)C1 [Compound 13, benzyl 2-(8-chloro-1,2,3,4-tetrahydro-2-methylpyrido[4,3-b]indol-5-yl)acetate] | 97% | 73% | 38% | 101% |
| Cc1ccc2c(c1)c1c(n2CC(=O)NCc2ccccc2)CCN(C)C1 [Compound 25, N-benzyl-2-(1,2,3,4-tetrahydro-2,8-dimethylpyrido[4,3-b]indol-5-yl)acetamide] | 38% | 2% | -3% | 58% |
| Cc1ccc2c(c1)c1c(n2CC(=O)NCC2CCCCC2)CCN(C)C1 [Compound 26, N-(cyclohexylmethyl)-2-(1,2,3,4-tetrahydro-2,8-dimethylpyrido[4,3-b]indol-5-yl)acetamide] | 45% | 22% | -4% | 34% |
